This note sets out measurements from article PMC11620503 (Antimicrobial Agents and Chemotherapy, 2024).

Converted amounts (≈) assume the structure as drawn. Like-named read-outs stand apart in the source and are kept apart here.

Assay [1] relates to isolates of E. coli with NDM and PBP3 mutations. Briefly: MIC, broth microdilution. Format: cell-based. The following applies: Escherichia coli, read-out: median MICs. (In general: In broth dilution the organism is exposed to a series of concentrations in liquid medium.)
Assay [2] deals with OXA-23 (Acinetobacter baumannii, UniProt Q9L4P2). Briefly: Ki app determination (Waley's method).
For assay [3], the target named is OXA-24 (Acinetobacter baumannii, UniProt Q8RLA6). Briefly: Ki app determination (Waley's method).
Assay [4] deals with Bacteroides ovatus KUB3009. Put plainly: MIC, agar dilution, reference strains of anaerobic bacteria. Type of assay: cell-based. On the technique in general: In agar dilution, organisms are placed on agar that contains the substance at set levels.
Assay [5] has as its target NDM-6 (Klebsiella pneumoniae, UniProt C7C422, A233V). Briefly: Ki app determination (Waley's method).
Assay [6] deals with Bulleidia extructa KUB3013. Put plainly: MIC, agar dilution, reference strains of anaerobic bacteria. Format: cell-based.
The target in assay [7] is KPC-38 (Klebsiella pneumoniae, UniProt Q9F663). Briefly: Ki app determination (Waley's method). Particulars: read-out: Ki app, means from three independent studies.
For assay [8], the system named is Fusobacterium varium ATCC 27725. Briefly: MIC, agar dilution, reference strains of anaerobic bacteria. Format: cell-based. The following applies: ATCC27725.
Assay [9] has as its system Bacteroides thetaiotaomicron KUB2984. The assay is described as above. Format: cell-based.
For assay [10], the target named is OXA-66 (Acinetobacter baumannii, UniProt Q58XD2). Put plainly: Ki app determination (Waley's method).
The test system of assay [11] is Parvimonas micra KUB3000. Put plainly: MIC, agar dilution, reference strains of anaerobic bacteria. Type of assay: cell-based.
Assay [12] has as its system Clostridioides difficile ATCC BAA-1803. The description is as above. Particulars: ATCCBAA1803. Type of assay: cell-based.
The target of assay [13] is NDM-7 (Klebsiella pneumoniae, UniProt C7C422, D130N/M154L). Put plainly: Ki app determination (Waley's method).
In assay [14] the target is OXA-72 (Acinetobacter baumannii, UniProt Q5XQU0). Briefly: Ki app determination (Waley's method).
In assay [15] the target is SHV-12 (Klebsiella pneumoniae, UniProt P0A3M1, L31Q). Put plainly: Ki app determination (Waley's method).
The subject of assay [16] is Fusobacterium nucleatum ATCC 25586. Briefly: MIC, agar dilution, reference strains of anaerobic bacteria. Particulars: ATCC25586. Type of assay: cell-based.
In assay [17] the target is VIM-1 (Pseudomonas aeruginosa, UniProt A0A0F7KYQ8). Put plainly: Ki app determination (Waley's method).
Assay [18] deals with Clostridioides difficile ATCC 43255. Briefly: MIC, agar dilution, reference strains of anaerobic bacteria. Format: cell-based. Particulars: ATCC43255.
Assay [19] has as its system 12 Gram-positive strains (including methicillin-sensitive staphylococci and streptococci). Put plainly: Intrinsic antibacterial activity, MIC. Type of assay: cell-based. Particulars: KSP-1007 alone.
The subject of assay [20] is 20 anaerobic strains (including Clostridium perfringens, Atopobium rimae, Bacteroides spp., and Prevotella spp.). Format: cell-based.
In assay [21] the target is CTX-M-15 (Escherichia coli, UniProt Q9EXV5). Put plainly: Ki app determination (Waley's method).
For assay [22], the target named is VIM-2 (Escherichia coli, UniProt Q5U7L7). Briefly: Ki app determination (Waley's method).
Assay [23] deals with Prevotella intermedia KUB2991. Put plainly: MIC, agar dilution, reference strains of anaerobic bacteria. Type of assay: cell-based.
The test system of assay [24] is Eggerthella lenta ATCC 43055. The description is as above. Type of assay: cell-based. Particulars: ATCC43055.
In assay [25] the test system is the other seven anaerobic strains. Briefly: Intrinsic antibacterial activity, MIC agar dilution. Type of assay: cell-based. How it is done: MICs were determined by the broth microdilution method and agar dilution method (for anaerobic bacteria only) according to CLSI ([37], [38]). When investigating the effect of HSA on the MICs, CAMHB with 4% HSA (FUJIFILM Wako Pure Chemical Corporation) was used. […] The MBC was defined as the lowest drug concentration at which ≥99.9% of the original inoculum was killed.

The subject of assay [26] is Propionibacterium acnes ATCC 11827. Briefly: MIC, agar dilution, reference strains of anaerobic bacteria. Type of assay: cell-based. The following applies: Cutibacterium acnes, ATCC11827.
Assay [27] addresses class A carbapenemase KPCs. Put plainly: Ki app determination, range over enzymes. The following applies: read-out: Ki app values, range.
Assay [28] concerns the target class D carbapenemases, OXAs from Acinetobacter spp., and OXA-48. Put plainly: Ki app determination, range over enzymes. Particulars: read-out: Ki app, range; range over OXAs from Acinetobacter spp. and OXA-48.
Assay [29] concerns Actinomyces odontolyticus ATCC 17929. Put plainly: MIC, agar dilution, reference strains of anaerobic bacteria. Type of assay: cell-based. The following applies: Schaalia odontolytica, ATCC17929.
In assay [30] the target is NDM-5 (Klebsiella pneumoniae, UniProt C7C422, M154L/V88L). Briefly: Ki app determination (Waley's method).
Assay [31] deals with Clostridioides difficile ATCC 700057. Briefly: MIC, agar dilution, reference strains of anaerobic bacteria. Type of assay: cell-based. The following applies: ATCC700057.
In assay [32] the target is CTX-M-14 (Escherichia coli, UniProt Q9L5C7). Briefly: Ki app determination (Waley's method).
Assay [33] relates to A. baumannii CDC-35 (OXA-66 and OXA-72 producer). Briefly: Neutropenic murine thigh infection model. Particulars: MEM 50 mg/kg q3h sc for 24 h.
The subject of assay [34] is E. coli ATCC BAA-2469 (NDM-1). Briefly: MIC, broth microdilution. Type of assay: cell-based, Escherichia coli.
Assay [35] relates to Klebsiella pneumoniae ATCC BAA-2344 (KPC-2). Put plainly: MIC, broth microdilution. Format: cell-based. The following applies: K. pneumoniae ATCC BAA-2344, agent alone.

OXA-72, sequence (Q5XQU0 entry or part of it): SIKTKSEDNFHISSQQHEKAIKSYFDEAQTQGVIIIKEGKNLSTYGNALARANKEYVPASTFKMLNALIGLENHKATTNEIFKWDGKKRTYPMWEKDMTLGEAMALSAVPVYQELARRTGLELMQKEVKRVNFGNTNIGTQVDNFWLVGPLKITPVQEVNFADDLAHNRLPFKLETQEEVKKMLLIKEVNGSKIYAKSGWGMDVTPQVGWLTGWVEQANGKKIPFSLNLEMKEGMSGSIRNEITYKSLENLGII
OXA-24, sequence (Q8RLA6 20-275 limits assumed): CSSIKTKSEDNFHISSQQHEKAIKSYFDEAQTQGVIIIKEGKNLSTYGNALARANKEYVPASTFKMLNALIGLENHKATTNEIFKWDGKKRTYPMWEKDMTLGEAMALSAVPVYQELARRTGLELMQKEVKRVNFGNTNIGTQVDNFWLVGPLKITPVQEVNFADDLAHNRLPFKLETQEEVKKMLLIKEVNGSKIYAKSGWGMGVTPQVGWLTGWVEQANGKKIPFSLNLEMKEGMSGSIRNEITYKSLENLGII
KPC-38, sequence (Q9F663 25-293 limits assumed): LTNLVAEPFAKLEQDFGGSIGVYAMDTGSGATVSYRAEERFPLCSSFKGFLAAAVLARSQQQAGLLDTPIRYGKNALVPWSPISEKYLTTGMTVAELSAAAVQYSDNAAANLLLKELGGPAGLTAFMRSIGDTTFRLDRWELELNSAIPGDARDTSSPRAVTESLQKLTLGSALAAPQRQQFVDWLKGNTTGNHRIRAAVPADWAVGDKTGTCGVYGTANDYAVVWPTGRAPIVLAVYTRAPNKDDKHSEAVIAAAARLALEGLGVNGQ
NDM-5, sequence (C7C422 29-270 V88L/M154L): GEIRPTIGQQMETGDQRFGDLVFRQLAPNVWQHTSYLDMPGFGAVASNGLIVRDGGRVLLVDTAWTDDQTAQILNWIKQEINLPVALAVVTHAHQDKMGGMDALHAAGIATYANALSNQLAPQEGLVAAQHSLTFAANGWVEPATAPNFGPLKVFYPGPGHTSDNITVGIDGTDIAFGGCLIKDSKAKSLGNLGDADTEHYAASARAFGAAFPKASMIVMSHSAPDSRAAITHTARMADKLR
NDM-6, sequence (C7C422 29-270 A233V): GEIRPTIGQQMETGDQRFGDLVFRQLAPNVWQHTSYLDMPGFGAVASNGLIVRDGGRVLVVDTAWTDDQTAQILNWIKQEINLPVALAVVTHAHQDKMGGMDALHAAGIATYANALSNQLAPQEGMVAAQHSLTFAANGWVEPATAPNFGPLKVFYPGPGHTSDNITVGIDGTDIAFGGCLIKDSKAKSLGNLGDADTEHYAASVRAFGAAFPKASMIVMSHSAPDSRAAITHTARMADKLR
OXA-23, sequence (Q9L4P2 18-273): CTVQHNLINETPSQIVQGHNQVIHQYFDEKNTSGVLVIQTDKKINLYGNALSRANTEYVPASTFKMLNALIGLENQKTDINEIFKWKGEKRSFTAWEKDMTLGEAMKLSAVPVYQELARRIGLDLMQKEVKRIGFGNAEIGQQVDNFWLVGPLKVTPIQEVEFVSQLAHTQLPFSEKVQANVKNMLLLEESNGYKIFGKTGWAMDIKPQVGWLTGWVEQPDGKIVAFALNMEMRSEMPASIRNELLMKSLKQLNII
OXA-66, sequence (Q58XD2 entry or part of it): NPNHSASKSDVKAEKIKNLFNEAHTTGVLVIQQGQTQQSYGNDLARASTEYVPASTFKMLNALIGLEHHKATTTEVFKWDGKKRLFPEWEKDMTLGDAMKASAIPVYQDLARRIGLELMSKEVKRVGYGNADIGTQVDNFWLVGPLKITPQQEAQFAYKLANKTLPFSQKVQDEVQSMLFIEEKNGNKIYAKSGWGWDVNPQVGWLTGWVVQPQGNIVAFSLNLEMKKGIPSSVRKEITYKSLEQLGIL
CTX-M-14, sequence (Q9L5C7 29-291, species assumed): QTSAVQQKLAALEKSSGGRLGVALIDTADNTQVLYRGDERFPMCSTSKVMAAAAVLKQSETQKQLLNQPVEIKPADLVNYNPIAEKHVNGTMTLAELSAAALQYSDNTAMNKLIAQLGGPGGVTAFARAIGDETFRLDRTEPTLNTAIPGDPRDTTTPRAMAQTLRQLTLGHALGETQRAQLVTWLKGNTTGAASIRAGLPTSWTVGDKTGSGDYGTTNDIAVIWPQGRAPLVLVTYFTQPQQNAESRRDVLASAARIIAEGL
SHV-12, sequence (P0A3M1 22-286 L31Q): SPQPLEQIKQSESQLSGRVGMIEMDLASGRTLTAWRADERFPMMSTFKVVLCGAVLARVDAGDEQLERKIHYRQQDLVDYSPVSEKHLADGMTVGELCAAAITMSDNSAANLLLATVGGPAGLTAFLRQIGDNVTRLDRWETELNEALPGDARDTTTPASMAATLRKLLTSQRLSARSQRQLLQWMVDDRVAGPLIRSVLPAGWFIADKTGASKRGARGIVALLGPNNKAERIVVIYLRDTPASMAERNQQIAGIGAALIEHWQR
NDM-7, sequence (C7C422 29-270 D130N/M154L): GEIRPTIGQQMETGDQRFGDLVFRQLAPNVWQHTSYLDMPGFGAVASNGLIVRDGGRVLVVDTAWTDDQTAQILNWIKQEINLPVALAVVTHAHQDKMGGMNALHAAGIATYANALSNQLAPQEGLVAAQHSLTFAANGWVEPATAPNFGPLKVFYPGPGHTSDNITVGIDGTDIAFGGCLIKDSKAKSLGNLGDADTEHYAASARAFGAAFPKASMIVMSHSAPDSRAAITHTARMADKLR
CTX-M-15, sequence (Q9EXV5 29-291, species assumed): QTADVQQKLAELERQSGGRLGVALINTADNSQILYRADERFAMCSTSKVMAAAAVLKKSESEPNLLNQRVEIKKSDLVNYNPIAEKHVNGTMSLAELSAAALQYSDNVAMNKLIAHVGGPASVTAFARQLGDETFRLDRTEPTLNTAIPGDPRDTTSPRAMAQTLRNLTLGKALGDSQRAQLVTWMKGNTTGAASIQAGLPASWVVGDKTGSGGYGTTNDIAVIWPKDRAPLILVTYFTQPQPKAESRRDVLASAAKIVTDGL

Take `CC(C)(O/N=C(\C(=O)N[C@@H]1C(=O)N2C(C(=O)[O-])=C(C[N+]3(CCNC(=O)c4ccc(O)c(O)c4Cl)CCCC3)CS[C@H]12)c1csc(N)n1)C(=O)O` [FDC, cefiderocol]: the MIC in assay [1] was 4 µg/mL (≈ 5.32 µM).
For `N[C@@H](C(=O)N1CC(Oc2ccc3c(c2C(=O)O)OB(O)CC3)C1)c1c[nH]cn1` [KSP-1007, 7-({1-[(2R)-2-amino-2-(1H-imidazol-4-yl)acetyl]azetidin-3-yl}oxy)-2-hydroxy-3,4-dihydro-2H-1,2-benzoxaborinine-8-carboxylic acid], the Ki in assay [2] came out at 4.07 ± 0.237 nM; in assay [3], 1.09 ± 0.387 nM; in assay [5], 1050 nM; in assay [7], 0.836 ± 0.414 nM; in assay [10] it was 5.78 ± 0.654 nM; in assay [13] it was 53 ± 30.2 nM. Moreover, the Ki in assay [14] is 0.621 ± 0.0248 nM; in assay [15], 53.5 ± 12.2 nM; in assay [17] it was 350 ± 45.4 nM; in assay [21], 0.0664 ± 0.015 nM; in assay [22], 1210 nM; in assay [27] it was 0.836 to 2.19 nM. For the same molecule, the values for the Ki in assay [28], in assay [30] and in [32] were 0.621 to 5.78 nM, 31.6 ± 12.3 nM and 0.153 ± 0.0235 nM, respectively. In addition, the MIC in assay [4] was 128 µg/mL (≈ 331 µM); in [6], 32 µg/mL (≈ 82.9 µM); in assay [8] it was above 256 µg/mL; in [9] it was 32 µg/mL (≈ 82.9 µM); in [11], 64 µg/mL (≈ 166 µM); in assay [12], above 256 µg/mL. Also, the MIC is 32 µg/mL (≈ 82.9 µM) in [16]; above 256 µg/mL in [18]; 4 µg/mL (≈ 10.4 µM) in assay [23]; above 256 µg/mL in [24]; above 256 µg/mL in assay [25]; 32 µg/mL (≈ 82.9 µM) in assay [26]. In addition, the MIC in [29] was 256 µg/mL (≈ 663 µM); in assay [31] it was above 256 µg/mL. Moreover, the “MICs, range” value in assay [19] lay in the range of 0.25 to 8 µg/mL; in assay [20], 2 to 256 µg/mL.
Consider `C[C@@H](O)[C@H]1C(=O)N2C(C(=O)O)=C(S[C@@H]3CN[C@H](C(=O)N(C)C)C3)[C@H](C)[C@H]12` [MEM, meropenem], for which the “bacterial growth in the thigh compared with the control group” value in assay [33] is listed as “no significant reduction in bacterial growth”. For the same molecule, the MIC in assay [34] (Escherichia coli, ATCCBAA2469, Experiment 1, agent alone, read-out: MIC) was 32 µg/mL (≈ 83.4 µM); in assay [34] (Experiment 2, agent alone) it was 32 µg/mL (≈ 83.4 µM); in [35] (Experiment 1), 16 to 32 µg/mL; in [35] (Klebsiella pneumoniae, ATCCBAA2344, Experiment 2, read-out: MIC), 16 to 32 µg/mL (≈ 41.7 to 83.4 µM).
